# Where two headings read alike, the source gives them in different places.
# Experiments:
# [1] = molecular target: P110β (Homo sapiens, UniProt P42338); test: Fluorescent (HTRF) determination of PI3K enzyme activity, β isoform; format: biochemical
# Text: Assay 1: Fluorescent determination of PI3Kinase Kinase enzyme activity
# Phosphoinositide 3 kinases (PI3K) belong to a class of lipid kinases that play a critical role in the regulation of several key cellular processes. The PI3K are capable of phosphorylating the 3-hydroxy position of phosphoinositols thereby generating second messengers involved in downstream signalling events. The homogenous time resolved fluorescence (HTRF) assay allows detection of 3,4,5-triphosphate (PIP3) formed as a result of phosphorylation of phosphotidylinositol 4,5-biphosphate (PIP2) by PI3K isoforms such as α, β, γ or δ.
# PI3K isoform activity for α, β, γ or δ was determined using a PI3K human HTRF™ Assay Kit (Millipore, Billerica, Mass.) with modifications. All incubations were carried out at room temperature. Briefly, 0.5 μl of 40× inhibitor (in 100% DMSO) or 100% DMSO were added to each well of a 384-well black plate (Greiner Bio-One, Monroe, N.C.) containing 14.5 μl 1× reaction buffer/PIP2 (10 mM MgCl2, 5 mM DTT, 1.38 μM PIP2) mix with or without enzyme and incubated for 10 min. After the initial incubation, 5 μl/well of 400 μM ATP was added and incubated for an additional 30 minutes. Reaction was terminated by adding 5 μl/well stop solution (Millipore, Billerica, Mass.). Five microliters of detection mix (Millipore, Billerica, Mass.) were then added to each well and was incubated for 6-18 h in the dark. HRTF ratio was measured on a microplate reader (BMG Labtech., Germany) at an excitation wavelength of 337 nm and emission wavelengths of 665 and 620 nm with an integration time of […]. Data were analyzed using Graphpad Prism (Graphpad software; San Diego Calif.) for IC50 determination. Percent inhibition was calculated based on the values for the blank and enzyme controls. The results are provided below in Table 2 & 3.
# [2] = molecular target: P110 δ/Pi3K δ (Homo sapiens, UniProt O00329); test: Fluorescent (HTRF) determination of PI3K enzyme activity, δ isoform; format: biochemical; design: inhibition: dose or concentration left out as unconfirmed
# Summary of the method: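 IC50 fitted from percent inhibition relative to blank and enzyme-only wells. Human PI3Kδ converts PIP2 to PIP3 after addition of 400 μM ATP solution, 30 min at room temperature. Product read by time-resolved FRET after stop and 6–18 h dark incubation with detection reagents.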
# [3] = read-out: P110 δ/ Pi3K δ IC 50 nM
# Chain of P110 δ/Pi3K δ (O00329 whole entry, canonical isoform): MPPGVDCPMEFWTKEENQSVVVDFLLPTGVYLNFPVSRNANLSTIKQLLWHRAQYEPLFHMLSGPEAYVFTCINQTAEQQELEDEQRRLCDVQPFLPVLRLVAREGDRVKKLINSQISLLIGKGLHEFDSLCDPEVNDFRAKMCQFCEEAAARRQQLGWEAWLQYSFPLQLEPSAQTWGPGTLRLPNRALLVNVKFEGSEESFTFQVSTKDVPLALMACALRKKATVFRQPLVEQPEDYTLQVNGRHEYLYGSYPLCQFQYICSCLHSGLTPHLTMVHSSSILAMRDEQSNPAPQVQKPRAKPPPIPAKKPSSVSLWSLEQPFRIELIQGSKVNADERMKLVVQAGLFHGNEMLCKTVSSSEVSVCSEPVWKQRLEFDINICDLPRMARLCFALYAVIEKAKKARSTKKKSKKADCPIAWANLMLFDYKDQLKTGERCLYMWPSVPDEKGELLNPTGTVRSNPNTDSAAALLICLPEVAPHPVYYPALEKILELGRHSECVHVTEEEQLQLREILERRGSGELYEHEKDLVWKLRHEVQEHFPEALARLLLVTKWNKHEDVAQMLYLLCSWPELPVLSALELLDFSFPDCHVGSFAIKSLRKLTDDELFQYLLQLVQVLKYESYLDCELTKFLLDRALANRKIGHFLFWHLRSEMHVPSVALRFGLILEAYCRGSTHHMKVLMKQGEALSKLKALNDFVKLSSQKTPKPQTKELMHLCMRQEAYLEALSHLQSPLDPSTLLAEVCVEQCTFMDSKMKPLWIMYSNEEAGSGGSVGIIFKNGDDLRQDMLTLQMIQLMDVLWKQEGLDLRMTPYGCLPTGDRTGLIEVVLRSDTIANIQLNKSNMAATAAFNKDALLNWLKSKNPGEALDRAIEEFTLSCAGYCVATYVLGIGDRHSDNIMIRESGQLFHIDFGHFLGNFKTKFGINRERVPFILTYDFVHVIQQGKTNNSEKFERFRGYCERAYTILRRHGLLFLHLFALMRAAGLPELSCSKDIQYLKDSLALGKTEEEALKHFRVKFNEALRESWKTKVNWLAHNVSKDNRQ
# Chain of P110 δ/Pi3K δ (P27986 whole entry partner, canonical isoform): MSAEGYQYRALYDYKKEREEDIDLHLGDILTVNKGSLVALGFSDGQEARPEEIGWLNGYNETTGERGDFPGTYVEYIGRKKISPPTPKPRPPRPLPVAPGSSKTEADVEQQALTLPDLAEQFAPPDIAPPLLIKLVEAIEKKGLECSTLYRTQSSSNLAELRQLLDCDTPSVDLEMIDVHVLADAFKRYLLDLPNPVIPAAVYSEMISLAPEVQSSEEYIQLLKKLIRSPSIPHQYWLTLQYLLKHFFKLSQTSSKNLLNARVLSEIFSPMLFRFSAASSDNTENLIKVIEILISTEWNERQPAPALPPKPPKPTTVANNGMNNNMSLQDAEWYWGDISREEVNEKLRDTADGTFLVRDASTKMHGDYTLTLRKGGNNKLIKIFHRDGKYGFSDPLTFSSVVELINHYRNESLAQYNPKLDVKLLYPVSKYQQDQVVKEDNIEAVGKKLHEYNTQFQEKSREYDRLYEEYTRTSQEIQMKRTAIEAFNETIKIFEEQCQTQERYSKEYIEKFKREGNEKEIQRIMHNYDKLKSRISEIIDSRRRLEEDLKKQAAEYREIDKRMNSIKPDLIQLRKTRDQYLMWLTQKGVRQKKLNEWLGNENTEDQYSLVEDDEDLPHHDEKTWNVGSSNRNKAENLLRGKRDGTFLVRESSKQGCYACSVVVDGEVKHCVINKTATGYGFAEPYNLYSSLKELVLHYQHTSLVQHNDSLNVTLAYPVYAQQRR
# Chain of P110β (P42338 whole entry, canonical isoform): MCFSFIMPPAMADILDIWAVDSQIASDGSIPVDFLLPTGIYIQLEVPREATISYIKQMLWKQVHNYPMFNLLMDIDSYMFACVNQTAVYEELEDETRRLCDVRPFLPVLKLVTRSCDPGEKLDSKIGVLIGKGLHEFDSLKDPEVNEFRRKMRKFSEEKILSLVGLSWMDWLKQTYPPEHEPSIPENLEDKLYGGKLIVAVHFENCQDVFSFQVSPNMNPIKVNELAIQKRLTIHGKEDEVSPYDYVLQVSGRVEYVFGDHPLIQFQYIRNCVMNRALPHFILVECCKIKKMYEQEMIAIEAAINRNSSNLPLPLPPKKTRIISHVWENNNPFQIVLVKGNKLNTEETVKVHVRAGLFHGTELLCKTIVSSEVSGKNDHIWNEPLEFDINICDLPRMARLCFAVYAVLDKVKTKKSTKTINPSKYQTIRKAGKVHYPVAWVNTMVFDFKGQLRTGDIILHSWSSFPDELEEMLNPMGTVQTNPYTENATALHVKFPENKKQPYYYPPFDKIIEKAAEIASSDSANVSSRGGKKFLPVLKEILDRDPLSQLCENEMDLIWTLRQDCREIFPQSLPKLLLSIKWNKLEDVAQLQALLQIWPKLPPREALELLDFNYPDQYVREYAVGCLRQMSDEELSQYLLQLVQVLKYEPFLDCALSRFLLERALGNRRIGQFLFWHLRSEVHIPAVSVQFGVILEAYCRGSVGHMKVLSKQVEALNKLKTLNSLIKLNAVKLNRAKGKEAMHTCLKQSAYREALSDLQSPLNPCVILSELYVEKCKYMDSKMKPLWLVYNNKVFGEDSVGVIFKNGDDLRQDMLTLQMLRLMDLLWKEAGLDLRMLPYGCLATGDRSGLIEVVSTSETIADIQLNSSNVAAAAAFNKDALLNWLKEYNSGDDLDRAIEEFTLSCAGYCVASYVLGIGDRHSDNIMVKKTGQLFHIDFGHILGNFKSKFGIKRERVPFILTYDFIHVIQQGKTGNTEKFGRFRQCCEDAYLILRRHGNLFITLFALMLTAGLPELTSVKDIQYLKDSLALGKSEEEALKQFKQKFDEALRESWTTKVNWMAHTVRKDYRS
# Chain of P110β (P27986 whole entry partner, canonical isoform): as the sequence (P27986 whole entry partner, canonical isoform) above
Compound,inhibition at 1 µM [1] [%],melting point [°C],inhibition [2] [%],"IC50 [2, 3] [nM]",inhibition at 1 µM [2] [%],IC50 ([2]; read-out: P110 δ/Pi3K δ IC 50 nM) [nM]
"O=c1c(-c2ccc(F)cc2)c(CN2CCOCC2)oc2ccc(Br)cc12 [Example 17, 6-Bromo-3-(4-fluorophenyl)-2-(morpholinomethyl)-4H-chromen-4-one]",< 25,–,–,–,–,–
"CCC(c1oc2ccc(F)cc2c(=O)c1-c1ccccc1)n1cnc2c(N)ncnc21 (stereo not drawn) [Example 38, 2-(1-(6-amino-9H-purin-9-yl)propyl)-6-fluoro-3-phenyl-4H-chromen-4-one]",–,266 to 272,–,–,< 50,–
"Nc1ncnc2c1c(-c1cccc(CO)c1)nn2Cc1oc2ccccc2c(=O)c1-c1ccccc1 [Example 61, 2-((4-amino-3-(3-(hydroxymethyl)phenyl)-1H-pyrazolo[3,4-d]pyrimidin-1-yl)methyl)-3-phenyl-4H-chromen-4-one]",–,219 to 223,–,–,< 50,–
"Nc1ncnc2c1c(-c1cn[nH]c1)nn2Cc1oc2ccccc2c(=O)c1-c1ccccc1 [Example 60, 2-((4-amino-3-(1H-pyrazol-4-yl)-1H-pyrazolo[3,4-d]pyrimidin-1-yl)methyl)-3-phenyl-4H-chromen-4-one]",–,235 to 237,–,–,50 to 100,< 250
"CC(c1oc2ccccc2c(=O)c1-c1cccc(F)c1)n1nc(-c2ccc3cc[nH]c3c2)c2c(N)ncnc21 (stereo not drawn) [Example 94, 2-(1-(4-amino-3-(1H-indol-6-yl)-1H-pyrazolo[3,4-d]pyrimidin-1-yl)ethyl)-3-(3-fluorophenyl)-4H-chromen-4-one]",–,222 to 225,50 to 100,–,–,–
"CC(c1oc2ccccc2c(=O)c1-c1cccc(F)c1)n1nc(-c2ccc(CN)s2)c2c(N)ncnc21 (stereo not drawn) [Example 102a, 2-(1-(4-amino-3-(5-(aminomethyl)thiophen-2-yl)-1H-pyrazolo[3,4-d]pyrimidin-1-yl)ethyl)-3-(3-fluorophenyl)-4H-chromen-4-one]",–,275 to 278,< 50,–,–,–
"Nc1ncnc2c1ncn2Cc1oc2ccccc2c(=O)c1-c1ccc(F)cc1 [Example 16, 2-[(6-Amino-9H-purin-9-yl)methyl]-3-(4-fluorophenyl)-4H-chromen-4-one]",–,212 to 216,–,–,< 50,–
"CC(c1oc2ccccc2c(=O)c1-c1cccc(F)c1)n1nc(-c2cc(O)ccc2Cl)c2c(N)ncnc21 (stereo not drawn) [Example 96a, 2-(1-(4-amino-3-(2-chloro-5-hydroxyphenyl)-1H-pyrazolo[3,4-d]pyrimidin-1-yl)ethyl)-3-(3-fluorophenyl)-4H-chromen-4-one]",–,192 to 195,50 to 100,–,–,–
"O=c1c(-c2ccccc2)c(CSc2ncnc3[nH]cnc23)oc2ccccc12 [Example 11, 2-((9H-Purin-6-ylthio)methyl)-3-phenyl-4H-chromen-4-one]",–,208 to 209,–,–,< 50,–
"CC(c1oc2ccc(Br)cc2c(=O)c1-c1ccccc1)n1ncc2c(N)ncnc21 (stereo not drawn) [Example 26, 2-(1-(4-amino-1H-pyrazolo[3,4-d]pyrimidin-1-yl)ethyl)-6-bromo-3-phenyl-4H-chromen-4-one]",–,239 to 240,–,–,< 50,–
"Cn1c(=O)c2c(ncn2Cc2oc3ccc(Br)cc3c(=O)c2-c2ccccc2)n(C)c1=O [Example 20, 7-[(6-Bromo-4-oxo-3-phenyl-4H-chromen-2-yl)methyl]-1,3-dimethyl-1H-purine-2,6(3H,7H)-dione]",–,253 to 255,–,–,< 50,–
"O=c1c(-c2ccccc2)c(Cn2cnc3c(Cl)ncnc32)oc2ccccc12 [Example 9, 2-[(6-Chloro-9H-purin-9-yl)methyl]-3-phenyl-4H-chromen-4-one]",–,187 to 190,–,–,< 50,–

# Results, then the molecule that gave them:
inhibition at 1 µM [1] [%],melting point [°C],inhibition [2] [%],"IC50 [2, 3] [nM]",inhibition at 1 µM [2] [%],IC50 ([2]; read-out: P110 δ/Pi3K δ IC 50 nM) [nM],Compound
50 to 100,–,–,–,–,–,"COc1c(F)cc(-c2nn(Cc3oc4ccc(F)cc4c(=O)c3-c3cccc(F)c3)c3ncnc(N)c23)cc1F [Example 127, 2-((4-amino-3-(3,5-difluoro-4-methoxyphenyl)-1H-pyrazolo[3,4-d]pyrimidin-1-yl)methyl)-6-fluoro-3-(3-fluorophenyl)-4H-chromen-4-one]"
25 to 50,140 to 142,< 50,–,–,–,"CC(c1oc2ccccc2c(=O)c1-c1cccc(F)c1)n1nc(-c2cnn(Cc3ccccc3)c2)c2c(N)ncnc21 (stereo not drawn) [Example 134, 2-(1-(4-amino-3-(1-benzyl-1H-pyrazol-4-yl)-1H-pyrazolo[3,4-d]pyrimidin-1-yl)ethyl)-3-(3-fluorophenyl)-4H-chromen-4-one]"
50 to 100,224 to 226,50 to 100,< 250,–,–,"CC(C)Oc1ccc(-c2nn(C(C)c3oc4ccccc4c(=O)c3-c3cccc(F)c3)c3ncnc(N)c23)cc1 (stereo not drawn) [Example 144, 2-(1-(4-amino-3-(4-isopropoxyphenyl)-1H-pyrazolo[3,4-d]pyrimidin-1-yl)ethyl)-3-(3-fluorophenyl)-4H-chromen-4-one]"
< 25,218 to 222,< 50,–,–,–,"Cc1noc(C)c1-c1nn(C(C)c2oc3ccccc3c(=O)c2-c2cccc(F)c2)c2ncnc(N)c12 (stereo not drawn) [Example 153, 2-(1-(4-amino-3-(3,5-dimethylisoxazol-4-yl)-1H-pyrazolo[3,4-d]pyrimidin-1-yl)ethyl)-3-(3-fluorophenyl)-4H-chromen-4-one]"
25 to 50,224 to 226,< 50,–,–,–,"CC(c1oc2ccccc2c(=O)c1-c1cccc(F)c1)n1nc(-c2ccc(OC(F)(F)F)cc2)c2c(N)ncnc21 (stereo not drawn) [Example 145, 2-(1-(4-amino-3-(4-(trifluoromethoxy)phenyl)-1H-pyrazolo[3,4-d]pyrimidin-1-yl)ethyl)-3-(3-fluorophenyl)-4H-chromen-4-one]"
25 to 50,242 to 245,50 to 100,< 250,–,–,"CC(c1oc2ccccc2c(=O)c1-c1cccc(F)c1)n1nc(-c2cc3ccccc3s2)c2c(N)ncnc21 (stereo not drawn) [Example 151, 2-(1-(4-amino-3-(benzo[b]thiophen-2-yl)-1H-pyrazolo[3,4-d]pyrimidin-1-yl)ethyl)-3-(3-fluorophenyl)-4H-chromen-4-one]"
< 25,234 to 236,50 to 100,–,–,–,"CC(c1oc2ccccc2c(=O)c1-c1cccc(F)c1)n1nc(-c2ccco2)c2c(N)ncnc21 (stereo not drawn) [Example 155, 2-(1-(4-amino-3-(furan-2-yl)-1H-pyrazolo[3,4-d]pyrimidin-1-yl)ethyl)-3-(3-fluorophenyl)-4H-chromen-4-one]"
< 25,–,–,–,–,–,"COc1c(F)cc(-c2nn(C(C)c3oc4ccccc4c(=O)c3-c3cccc(F)c3)c3ncnc(N)c23)cc1F (stereo not drawn) [Example 126, 2-(1-(4-amino-3-(3,5-difluoro-4-methoxyphenyl)-1H-pyrazolo[3,4-d]pyrimidin-1-yl)ethyl)-3-(3-fluorophenyl)-4H-chromen-4-one]"
25 to 50,238 to 240,–,–,–,–,"CC(c1oc2ccccc2c(=O)c1-c1cccc(F)c1)n1nc(-c2cccc3c2oc2ccccc23)c2c(N)ncnc21 (stereo not drawn) [Example 138, 2-(1-(4-amino-3-(dibenzo[b,d]furan-4-yl)-1H-pyrazolo[3,4-d]pyrimidin-1-yl)ethyl)-3-(3-fluorophenyl)-4H-chromen-4-one]"
–,246 to 249,< 50,–,–,–,"COc1ccc(-c2nn(C(C)c3oc4ccccc4c(=O)c3-c3cccc(F)c3)c3ncnc(N)c23)cc1Cl (stereo not drawn) [Example 157, 2-(1-(4-amino-3-(3-chloro-4-methoxyphenyl)-1H-pyrazolo[3,4-d]pyrimidin-1-yl)ethyl)-3-(3-fluorophenyl)-4H-chromen-4-one]"
–,274 to 278,< 50,–,–,–,"Nc1ncnc2c1c(-c1cc(F)c(O)c(F)c1)nn2Cc1oc2ccc(F)cc2c(=O)c1-c1cccc(F)c1 [Example 127a, 2-((4-amino-3-(3,5-difluoro-4-hydroxyphenyl)-1H-pyrazolo[3,4-d]pyrimidin-1-yl)methyl)-6-fluoro-3-(3-fluorophenyl)-4H-chromen-4-one]"
–,127 to 132,< 50,–,–,–,"CC(c1oc2ccccc2c(=O)c1-c1cccc(F)c1)n1nc(-c2cccc(C(=O)NC3CC3)c2)c2c(N)ncnc21 (stereo not drawn) [Example 176, 3-(4-amino-1-(1-(3-(3-fluorophenyl)-4-oxo-4H-chromen-2-yl)ethyl)-1H-pyrazolo[3,4-d]pyrimidin-3-yl)-N-cyclopropylbenzamide]"

# From patent publication US9421209B2, “Kinase modulators” (Rhizen Pharmaceuticals SA, priority 2009, dated 2016)
